# Source: ChEMBL document CHEMBL1201862, “PubChem BioAssay data set” (2004)
# Calls of active or inactive are those of the source.
# What was measured:
# [1] = molecular target: Heat shock protein HSP 90-alpha (Homo sapiens, UniProt P07900); format: functional, organism-based
# [2] = tested on: BJ; experiment: cells; format: functional, cell-based; settings: Homo sapiens
# [3] = DRD fibroblast viability loss – cell-based, non-viral oncogenic, luminescence, dose response (AID 1934); format: functional; settings: Homo sapiens
# [4] = tested on: BJ; experiment: growth inhibition of engineered Ras-driven BJ cells – cell-based, alamar blue fluorescence, cherrypicked samples, dose response (AID 2631); format: functional; settings: Homo sapiens;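 also: confirmatory dose-response assay in RAS-dependent BJ fibroblasts engineered with TERT, LT and ST, with cytotoxicity read by fluorescence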
# [5] = tested on: BJ; experiment: BJ-TERT fibroblast viability loss – cell-based, RAS-independent, luminescence, dose response (AID 1933); format: functional; settings: Homo sapiens
# [6] = tested on: BJ; experiment: BJ-TERT-LT-ST fibroblast viability loss – cell-based, RAS-independent, luminescence, dose response (AID 1935); format: functional; settings: Homo sapiens;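 also: BJ fibroblasts immortalized with TERT plus LT and ST oncogenes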
# [7] = HEK-293T viability loss after treatment – luminescence, T-cell screen hits, cytotoxicity control for TCR NF-kB inhibitor project, dose response (AID 489026); format: functional, cell-based;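 also: cells exposed to compound about 14 hours before the viability readout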
# [8] = molecular target: T1, Polyadenylate-binding protein 1 (Homo sapiens, UniProt P11940); experiment: MLLE binding blockers, Cy5 peptide tracer – biochemical, fluorescence polarization, Cy5-PAM2 peptide, secondary, miRNA deadenylation inhibitor project, dose response (AID 602260); format: functional; settings: read-out: IC50_Mean
# [9] = molecular target: T1, Polyadenylate-binding protein 1; experiment: MLLE domain peptide-binding blockers, IC50 – biochemical, fluorescence polarization, FITC-PAM2 peptide, dose response (AID 602259); format: functional; settings: read-out: IC50_Mean
# [10] = molecular target: T2, Carboxy-terminal domain RNA polymerase II polypeptide A small phosphatase 1 (Homo sapiens, UniProt Q9GZU7); experiment: CTDSP1 inhibitors, concentration-response, biochemical, absorbance readout, ultra-high-throughput screen actives (AID 540297); format: functional
# T2 sequence (Q9GZU7 whole entry): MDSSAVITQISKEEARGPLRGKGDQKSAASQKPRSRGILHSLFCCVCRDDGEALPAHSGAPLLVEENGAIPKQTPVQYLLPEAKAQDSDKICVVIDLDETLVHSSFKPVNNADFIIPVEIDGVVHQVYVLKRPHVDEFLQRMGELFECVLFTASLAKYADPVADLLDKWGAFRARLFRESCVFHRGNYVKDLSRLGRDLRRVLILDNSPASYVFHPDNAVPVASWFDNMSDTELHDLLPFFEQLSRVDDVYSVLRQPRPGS
# [11] = molecular target: T3, High affinity choline transporter 1 (Homo sapiens, UniProt Q9GZV3); experiment: human choline transporter blockers, potency – cell-based, 5-point CRC, membrane potential dye, dose response (AID 504840); format: functional
# T3 sequence (Q9GZV3 whole entry): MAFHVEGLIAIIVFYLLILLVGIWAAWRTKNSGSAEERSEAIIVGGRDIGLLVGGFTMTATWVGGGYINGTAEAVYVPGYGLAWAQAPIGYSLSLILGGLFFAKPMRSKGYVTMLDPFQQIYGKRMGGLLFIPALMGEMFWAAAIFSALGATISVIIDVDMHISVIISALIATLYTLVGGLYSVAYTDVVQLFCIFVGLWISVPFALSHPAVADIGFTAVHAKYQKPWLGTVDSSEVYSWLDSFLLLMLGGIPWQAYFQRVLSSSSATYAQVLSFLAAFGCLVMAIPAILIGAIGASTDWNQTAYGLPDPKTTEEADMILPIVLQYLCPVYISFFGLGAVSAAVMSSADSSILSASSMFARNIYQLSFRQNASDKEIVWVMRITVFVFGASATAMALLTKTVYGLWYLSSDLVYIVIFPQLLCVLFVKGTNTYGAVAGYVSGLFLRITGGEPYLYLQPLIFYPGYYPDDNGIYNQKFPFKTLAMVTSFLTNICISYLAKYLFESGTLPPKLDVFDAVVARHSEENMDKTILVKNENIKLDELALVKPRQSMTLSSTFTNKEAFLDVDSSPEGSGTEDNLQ
# [12] = molecular target: Luciferin 4-monooxygenase (Photinus pyralis, UniProt P08659); experiment: inhibition of purified Photinus pyralis luciferase – biochemical, luminescence, dose response (AID 1891)
# [13] = Luminescence Cell-Based Dose Confirmation HTS to Identify Inhibitors of Platelet Dense Granule Release. [Related pubchem assays: 1663 (Primary HTS), 1678 (Summary of Project)]; format: functional
# [14] = loss of viability in HepG2 cells – cell-based, CellTiter-Glo, cherry-picked, cytotoxicity control for Shn3 inhibitor project, dose response (AID 624134); format: functional
# [15] = reduction of Shn3 3'UTR-driven luciferase in osteoblasts – cell-based, Clone20 osteoblasts, firefly luciferase, cherry-picked, dose response (AID 624132); format: functional;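 also: firefly luciferase luminescence from reporter carrying the Shn3 3'UTR in osteoblasts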
# [16] = Luminescence Cell-Based Dose Retest to Confirm Inhibitors of Cancer Stem Cells. [Related pubchem assays (depositor defined):AID2717, AID2721]; format: functional; settings: Homo sapiens
# [17] = molecular target: Induced myeloid leukemia cell differentiation protein Mcl-1 (Homo sapiens, UniProt Q07820); format: functional
# [18] = molecular target: T4, Rac GTPase-activating protein 1 (Homo sapiens, UniProt Q9H0H5); experiment: blockers of MgcRacGAP-driven Rac1 GTP hydrolysis – biochemical, ADP Hunter fluorescence, primary and confirmatory, confirmation (AID 624330); format: functional
# T4 sequence (Q9H0H5 whole entry): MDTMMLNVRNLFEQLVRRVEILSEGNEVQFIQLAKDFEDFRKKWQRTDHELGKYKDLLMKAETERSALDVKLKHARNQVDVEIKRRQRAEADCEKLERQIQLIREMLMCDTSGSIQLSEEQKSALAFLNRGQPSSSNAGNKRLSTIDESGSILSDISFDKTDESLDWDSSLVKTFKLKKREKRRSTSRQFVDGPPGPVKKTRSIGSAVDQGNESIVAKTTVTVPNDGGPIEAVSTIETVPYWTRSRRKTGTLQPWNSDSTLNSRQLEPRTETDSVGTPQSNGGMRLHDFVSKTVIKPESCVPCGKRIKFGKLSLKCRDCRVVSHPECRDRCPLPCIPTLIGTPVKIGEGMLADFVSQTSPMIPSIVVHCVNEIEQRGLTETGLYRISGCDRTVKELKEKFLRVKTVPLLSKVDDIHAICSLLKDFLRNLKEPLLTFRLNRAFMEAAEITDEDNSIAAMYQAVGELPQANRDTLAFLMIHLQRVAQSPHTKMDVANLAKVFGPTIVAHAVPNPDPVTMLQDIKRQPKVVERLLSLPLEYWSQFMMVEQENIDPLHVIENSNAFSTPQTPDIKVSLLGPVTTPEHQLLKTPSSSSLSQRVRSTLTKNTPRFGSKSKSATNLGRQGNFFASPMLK
# [19] = molecular target: T5, Short transient receptor potential channel 4 (Mus musculus, UniProt Q9QUQ5); experiment: block of DAMGO-driven TRPC4 calcium entry – cell-based, HEK293 TRPC4/mu-opioid, Fluo-4 calcium, dose response (AID 434942); format: functional;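 also: potency of inhibitors blocking the TRPC4 calcium response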
# T5 sequence (Q9QUQ5 whole entry): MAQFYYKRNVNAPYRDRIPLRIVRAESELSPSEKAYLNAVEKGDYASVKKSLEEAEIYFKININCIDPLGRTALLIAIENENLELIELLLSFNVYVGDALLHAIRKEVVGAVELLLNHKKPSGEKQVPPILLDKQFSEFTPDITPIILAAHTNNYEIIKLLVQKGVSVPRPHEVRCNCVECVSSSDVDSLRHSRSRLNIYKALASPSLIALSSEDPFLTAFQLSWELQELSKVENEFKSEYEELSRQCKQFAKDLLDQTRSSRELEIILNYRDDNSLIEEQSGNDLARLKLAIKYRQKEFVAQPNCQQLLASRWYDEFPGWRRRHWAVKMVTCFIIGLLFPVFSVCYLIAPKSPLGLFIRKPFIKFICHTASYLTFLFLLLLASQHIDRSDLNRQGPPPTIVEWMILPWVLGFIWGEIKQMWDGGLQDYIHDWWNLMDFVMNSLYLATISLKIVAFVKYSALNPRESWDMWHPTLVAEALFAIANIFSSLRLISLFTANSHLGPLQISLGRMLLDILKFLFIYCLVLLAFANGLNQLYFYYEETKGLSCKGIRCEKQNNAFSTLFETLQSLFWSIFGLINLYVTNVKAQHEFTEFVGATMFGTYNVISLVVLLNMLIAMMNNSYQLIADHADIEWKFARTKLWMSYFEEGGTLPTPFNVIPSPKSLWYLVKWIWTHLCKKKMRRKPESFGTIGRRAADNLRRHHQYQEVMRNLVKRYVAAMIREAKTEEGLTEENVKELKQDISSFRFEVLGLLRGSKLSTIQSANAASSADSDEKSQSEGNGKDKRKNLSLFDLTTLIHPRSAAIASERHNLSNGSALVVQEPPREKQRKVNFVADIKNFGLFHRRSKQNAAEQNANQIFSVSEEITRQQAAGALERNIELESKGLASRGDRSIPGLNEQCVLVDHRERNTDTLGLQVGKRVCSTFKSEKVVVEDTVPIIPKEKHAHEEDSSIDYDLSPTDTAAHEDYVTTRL
# [20] = molecular target: T6, Mannose-6-phosphate isomerase (Homo sapiens, UniProt P34949); experiment: MPI inhibition at elevated mannose 6-phosphate – biochemical, fluorescence intensity, high mannose 6-phosphate, primary screen (AID 1220)
# T6 sequence (P34949 whole entry): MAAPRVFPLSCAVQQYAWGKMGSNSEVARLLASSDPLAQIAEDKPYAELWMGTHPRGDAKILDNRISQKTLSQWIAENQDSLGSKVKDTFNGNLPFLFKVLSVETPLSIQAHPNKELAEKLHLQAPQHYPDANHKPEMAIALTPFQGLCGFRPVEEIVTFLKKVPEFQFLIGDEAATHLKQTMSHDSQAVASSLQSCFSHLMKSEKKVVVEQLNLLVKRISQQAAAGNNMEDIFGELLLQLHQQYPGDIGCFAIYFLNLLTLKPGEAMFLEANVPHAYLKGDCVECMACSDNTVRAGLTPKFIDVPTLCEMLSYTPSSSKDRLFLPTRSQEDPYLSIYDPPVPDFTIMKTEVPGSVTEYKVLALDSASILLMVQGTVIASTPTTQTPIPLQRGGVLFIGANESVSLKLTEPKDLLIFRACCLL
# T1 sequence (P11940 whole entry, the tested form may be a part): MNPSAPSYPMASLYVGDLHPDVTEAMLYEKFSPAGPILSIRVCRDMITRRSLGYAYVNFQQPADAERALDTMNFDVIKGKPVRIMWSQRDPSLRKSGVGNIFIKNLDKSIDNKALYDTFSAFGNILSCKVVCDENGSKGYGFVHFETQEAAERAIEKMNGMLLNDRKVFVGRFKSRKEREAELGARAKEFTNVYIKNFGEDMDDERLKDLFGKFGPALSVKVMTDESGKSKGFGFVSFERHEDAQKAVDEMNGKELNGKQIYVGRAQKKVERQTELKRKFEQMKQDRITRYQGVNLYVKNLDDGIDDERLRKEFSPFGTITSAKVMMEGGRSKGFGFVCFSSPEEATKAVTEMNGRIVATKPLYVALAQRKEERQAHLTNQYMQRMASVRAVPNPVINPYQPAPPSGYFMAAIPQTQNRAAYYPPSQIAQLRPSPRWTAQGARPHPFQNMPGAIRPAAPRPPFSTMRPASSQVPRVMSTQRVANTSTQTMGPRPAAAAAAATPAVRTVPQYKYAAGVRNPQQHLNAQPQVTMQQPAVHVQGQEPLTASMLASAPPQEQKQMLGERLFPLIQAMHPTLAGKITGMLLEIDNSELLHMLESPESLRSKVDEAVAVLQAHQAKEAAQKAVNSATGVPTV
# Chain of Induced myeloid leukemia cell differentiation protein Mcl-1 (Q07820 whole entry): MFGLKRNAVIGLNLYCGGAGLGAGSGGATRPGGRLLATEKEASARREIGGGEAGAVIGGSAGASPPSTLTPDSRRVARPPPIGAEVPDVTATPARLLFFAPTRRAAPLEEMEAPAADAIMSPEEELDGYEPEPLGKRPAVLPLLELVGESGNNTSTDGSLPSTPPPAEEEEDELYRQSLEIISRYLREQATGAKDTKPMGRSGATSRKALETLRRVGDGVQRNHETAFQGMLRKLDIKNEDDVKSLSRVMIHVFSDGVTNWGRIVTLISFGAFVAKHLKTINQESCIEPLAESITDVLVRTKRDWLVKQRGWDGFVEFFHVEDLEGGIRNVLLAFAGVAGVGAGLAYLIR
# Chain of Luciferin 4-monooxygenase (P08659 whole entry): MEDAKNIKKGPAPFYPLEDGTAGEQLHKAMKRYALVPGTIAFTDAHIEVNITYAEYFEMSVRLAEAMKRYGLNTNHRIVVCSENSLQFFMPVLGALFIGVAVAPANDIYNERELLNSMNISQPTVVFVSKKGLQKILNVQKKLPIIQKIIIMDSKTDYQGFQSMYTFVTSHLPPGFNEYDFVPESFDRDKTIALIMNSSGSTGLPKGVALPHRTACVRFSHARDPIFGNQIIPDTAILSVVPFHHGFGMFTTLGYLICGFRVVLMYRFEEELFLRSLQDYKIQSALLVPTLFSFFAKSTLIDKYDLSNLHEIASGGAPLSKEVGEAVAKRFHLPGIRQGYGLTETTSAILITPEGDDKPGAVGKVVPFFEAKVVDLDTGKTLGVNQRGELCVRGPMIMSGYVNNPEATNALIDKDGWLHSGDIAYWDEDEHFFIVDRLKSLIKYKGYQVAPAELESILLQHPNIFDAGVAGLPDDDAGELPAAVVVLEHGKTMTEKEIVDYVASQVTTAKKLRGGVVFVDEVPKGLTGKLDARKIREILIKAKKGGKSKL
smiles,measurement,setting,value
CC(=O)OC1C(=O)OCC23CCC4(C)OC4C2OC2CC(OC(=O)C=CC=CC(=O)OCCC1C)C3(C)C21CO1 (stereo not given),AC50,[1],2.3 µM (active)
Cc1cc(C)cc(NS(=O)(=O)c2ccc(-c3cnc(C4CC4)o3)cc2)c1,EC50,[2],26.2 µM (active)
same,EC50,[3],0.525 µM (active)
same,EC50,[4],< 0.104 µM (active)
same,EC50,[5],0.346 µM (active)
same,EC50,[6],0.521 µM (inconclusive)
same,IC50,[7],> 80 µM (inactive)
CC(C)(CCC(=S)N1CCOCC1)C1CCCCC1,IC50,[8],> 66 µM (inactive)
same,IC50,[9],> 66 µM (inactive)
COc1cccc(-n2c(=S)sc3c(=O)n(-c4ccccc4OC)c(=S)[nH]c32)c1,IC50,[8],> 66 µM (inactive)
same,IC50,[9],> 66 µM (inactive)
Cc1ccc(NC(=O)/C=C/c2ccco2)nc1,IC50,[10],11.7 µM (active)
CC1=C(C(=O)O)N2C(=O)C(NC(=O)c3ccc(F)cc3)C2SC1 (stereo not given),IC50,[8],> 66 µM (inactive)
same,IC50,[9],> 66 µM (inactive)
COc1ccc(NC(=O)CN(C)C(=O)/C=C/c2cn(Cc3ccccc3)nc2-c2cccnc2)cc1,IC50,[10],8.74 µM (active)
CCOC(=O)c1c(NC(=O)CCN2C(=O)c3cccc([N+](=O)[O-])c3C2=O)sc(C(=O)OC(C)C)c1C,IC50,[11],12.6 µM (active)
CC(=O)c1c2c3c(c(Br)ccc3n(C)c1=O)C(=O)c1ccccc1-2,EC50,[12],> 112 µM (not active)
same,EC50,[13],> 112 µM (not active)
same,IC50,[8],45.8 µM (inactive)
same,IC50,[9],37.5 µM (inactive)
COc1ccc(N2CCN(C(=O)Cc3ccc(S(=O)(=O)N4CCOCC4)s3)CC2)cc1,IC50,[10],6.08 µM (active)
CC(=O)c1ccc(OCCCC(=O)NC2=NCCS2)cc1,IC50,[8],> 66 µM (inactive)
same,IC50,[9],> 66 µM (inactive)
O=C(c1ccc(COc2ccccc2[N+](=O)[O-])o1)N1CCCCCC1,IC50,[11],12.6 µM (active)
Cc1cccc(N2CCN(C(=S)Nc3ccc4nc(N5CCN(C)CC5)cc(C)c4c3)CC2)c1C,EC50,[2],5.6 µM (inconclusive)
same,AC50,[14],6.83 µM (active)
same,EC50,[3],2.46 µM (active)
same,AC50,[15],5.45 µM (active)
same,EC50,[4],0.585 µM (active)
same,EC50,[5],1.22 µM (inconclusive)
same,EC50,[6],1.33 µM (inconclusive)
O=C(NCCCSc1ccccc1)c1cc(Br)ccc1O,AC50,[16],3.38 µM (active)
same,AC50,[1],4.6 µM (active)
Cc1ccc(NC(S)=NNC(=O)c2cccc([N+](=O)[O-])c2)cc1Cl,IC50,[11],12.6 µM (active)
CCOC(=O)C1CCCN(c2ccc(NC(=O)c3snc4c(=O)[nH]c(C)nc34)cc2)C1 (stereo not given),IC50,[17],5.25 µM (active)
CCCN1C(=O)SC(CC(=O)Nc2ccc(C)cc2)C1=O (stereo not given),IC50,[8],> 66 µM (inactive)
same,IC50,[9],> 66 µM (inactive)
CC(=O)Nc1ccc(-c2csc(NC(=O)C3CC(=O)N(c4ccc5c(c4)OCCO5)C3)n2)cc1 (stereo not given),IC50,[17],3.44 µM (active)
CCc1ccccc1NC(=O)c1cccc(Oc2ccc([N+](=O)[O-])cc2Cl)c1,AC50,[1],4.35 µM (active)
CCOC(=O)C1=C(C)N=c2s/c(=C\c3ccc(C(=O)O)cc3)c(=O)n2C1c1ccc(OC)cc1OC (stereo not given),IC50,[10],7.72 µM (active)
CCOC(=O)C1=C(C)NC(=O)CC1c1cc2c(cc1[N+](=O)[O-])OCO2 (stereo not given),IC50,[18],100 µM (active)
same,EC50,[19],1.68 µM (active)
same,IC50,[20],> 50 µM (not active)
CN(Cc1ccccc1)C(=O)CN1CCN(C(c2ccccc2)c2ccccc2)CC1,IC50,[11],11.5 µM (active)
CC(=O)N1CCc2cc(S(=O)(=O)NC(Cc3ccccc3)C(=O)NC3CCCCCC3)ccc21 (stereo not given),IC50,[17],4.58 µM (not active)
